Key:
Test in all cases: Bliss interaction score (quartile over a dose matrix) (fitness difference); higher = more antagonism (negative = synergy)
S. aureus Newman = system: S. aureus Newman
Outline: (§1)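 The Bliss score is observed fitness minus expected fitness, where the expected value is the product of single-drug fitness values inferred from combination data. Fitness is OD595 at entry into stationary phase normalised to the plate's robust no-drug mean and capped at 1. Scores are reported as quartiles spanning technical, biological and donor/recipient replicates.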

S. aureus DSM 20231 = system: S. aureus DSM 20231
Outline: as §1

S. pneumoniae D39V = system: S. pneumoniae D39V
Outline: as §1

B. subtilis 168 = system: B. subtilis 168
Outline: as §1
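Further: first quartile when negative (synergy) and third quartile when positive (antagonism).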

Compound	Bliss interaction score (S. aureus Newman)	Bliss interaction score (S. aureus DSM 20231)	Bliss interaction score (S. pneumoniae D39V)	Bliss interaction score (B. subtilis 168)	Bliss interaction score (S. aureus Newman; main component drawn)	Bliss interaction score (S. aureus DSM 20231; main component drawn)	Bliss interaction score (S. pneumoniae D39V; main component drawn)	Bliss interaction score (B. subtilis 168; main component drawn)
COc1cccc2c1C(=O)c1c(O)c3c(c(O)c1C2=O)C[C@@](O)(C(=O)CO)C[C@@H]3O[C@H]1C[C@H](N)[C@H](O)[C@H](C)O1 [Doxorubicin] + CN[C@H](CC(C)C)C(=O)N[C@H]1C(=O)N[C@@H](CC(N)=O)C(=O)N[C@H]2C(=O)N[C@H]3C(=O)N[C@H](C(=O)N[C@H](C(=O)O)c4cc(O)cc(O)c4-c4cc3ccc4O)[C@H](O[C@H]3C[C@](C)(N)[C@@H](O)[C@H](C)O3)c3ccc(c(Cl)c3)Oc3cc2cc(c3O[C@@H]2O[C@H](CO)[C@@H](O)[C@H](O)[C@H]2O[C@H]2C[C@](C)(NCc3ccc(-c4ccc(Cl)cc4)cc3)[C@@H](O)[C@H](C)O2)Oc2ccc(cc2Cl)[C@H]1O [Oritavancin]	0.114	0.0678	0.0571	-0.0288	–	–	–	–
CC(=O)Oc1ccccc1C(=O)O [Acetylsalicylicacid] + C[C@@H]1O[C@@H]1P(=O)(O)O [Fosfomycin]	-0.0772	0.0721	0.119	-0.291	–	–	–	–
CN(C)[C@@H]1C(O)=C(C(N)=O)C(=O)[C@@]2(O)C(O)=C3C(=O)c4c(O)ccc(Cl)c4[C@@](C)(O)[C@H]3C[C@@H]12 [Clortetracycline] + CC[C@H]1OC(=O)[C@H](C)[C@@H](O[C@H]2C[C@@](C)(OC)[C@@H](O)[C@H](C)O2)[C@H](C)[C@@H](O[C@@H]2O[C@H](C)C[C@H](N(C)C)[C@H]2O)[C@](C)(O)C[C@@H](C)C(=O)[C@H](C)[C@@H](O)[C@]1(C)O [Erythromycin]	-0.0583	-0.118	0.0677	-0.214	–	–	–	–
N#CC(C#N)=NNc1cccc(Cl)c1 [CCCP] + CCCCCCCCCC(=O)N[C@@H]1[C@H]([C@@H]([C@H](O[C@H]1OC2=C3C=C4C=C2OC5=C(C=C(C=C5)[C@H]([C@H]6C(=O)N[C@@H](C7=C(C(=CC(=C7)O)OC8[C@H]([C@H]([C@@H]([C@H](O8)CO)O)O)O)C9=C(C=CC(=C9)[C@H](C(=O)N6)NC(=O)[C@@H]4NC(=O)[C@@H]1C2=CC(=CC(=C2)OC2=C(C=CC(=C2)[C@H](C(=O)N[C@H](CC2=CC(=C(O3)C=C2)Cl)C(=O)N1)N)O)O)O)C(=O)O)O[C@H]1[C@@H]([C@H]([C@@H]([C@H](O1)CO)O)O)NC(=O)C)Cl)CO)O)O [Teicoplanin]	–	–	–	–	-0.0483	0.0772	0.096	0.17
N#CC(C#N)=NNc1cccc(Cl)c1 [CCCP] + C[C@@H](O)[C@H]1C(=O)N2C(C(=O)O)=C(SCCNC=N)C[C@H]12 [Imipenem]	0.0181	0.0449	0.0923	-0.0769	–	–	–	–
N#CC(C#N)=NNc1cccc(Cl)c1 [CCCP] + CC[C@H]1OC(=O)[C@H](C)C(=O)[C@H](C)[C@@H](O[C@@H]2O[C@H](C)C[C@H](N(C)C)[C@H]2O)[C@](C)(OC)C[C@@H](C)C(=O)[C@H](C)[C@H]2N(CCCCn3cnc(-c4cccnc4)c3)C(=O)O[C@]12C [Telithromycin]	-0.0206	-0.0246	-0.0245	-0.0441	–	–	–	–
O=C(O)c1cn(C2CC2)c2cc(N3CCNCC3)c(F)cc2c1=O [Ciprofloxacin] + CN[C@H](CC(C)C)C(=O)N[C@H]1C(=O)N[C@@H](CC(N)=O)C(=O)N[C@H]2C(=O)N[C@H]3C(=O)N[C@H](C(=O)N[C@H](C(=O)O)c4cc(O)cc(O)c4-c4cc3ccc4O)[C@H](O[C@H]3C[C@](C)(N)[C@@H](O)[C@H](C)O3)c3ccc(c(Cl)c3)Oc3cc2cc(c3O[C@@H]2O[C@H](CO)[C@@H](O)[C@H](O)[C@H]2O[C@H]2C[C@](C)(NCc3ccc(-c4ccc(Cl)cc4)cc3)[C@@H](O)[C@H](C)O2)Oc2ccc(cc2Cl)[C@H]1O [Oritavancin]	-0.0474	-0.0468	0.0622	-0.0274	–	–	–	–
C[C@H]1c2cccc(O)c2C(=O)C2=C(O)[C@]3(O)C(=O)C(C(N)=O)=C(O)[C@@H](N(C)C)[C@@H]3[C@@H](O)[C@@H]21 [Doxycycline] + CCCCCCCCCC(=O)N[C@@H]1[C@H]([C@@H]([C@H](O[C@H]1OC2=C3C=C4C=C2OC5=C(C=C(C=C5)[C@H]([C@H]6C(=O)N[C@@H](C7=C(C(=CC(=C7)O)OC8[C@H]([C@H]([C@@H]([C@H](O8)CO)O)O)O)C9=C(C=CC(=C9)[C@H](C(=O)N6)NC(=O)[C@@H]4NC(=O)[C@@H]1C2=CC(=CC(=C2)OC2=C(C=CC(=C2)[C@H](C(=O)N[C@H](CC2=CC(=C(O3)C=C2)Cl)C(=O)N1)N)O)O)O)C(=O)O)O[C@H]1[C@@H]([C@H]([C@@H]([C@H](O1)CO)O)O)NC(=O)C)Cl)CO)O)O [Teicoplanin]	–	–	–	–	0.0478	0.118	-0.0489	0.0442
CC(=O)Oc1ccccc1C(=O)O [Acetylsalicylicacid] + CO/N=C(\C(=O)N[C@@H]1C(=O)N2C(C(=O)O)=C(COC(N)=O)CS[C@H]12)c1ccco1 [Cefuroxime]	0.0943	-0.628	0.057	0.177	–	–	–	–

Source: the supplement of paper PMC10627819
